According to ChEMBL document CHEMBL1146766, “Synthesis of 3a,4-dihydro-3H-[1]benzopyrano[4,3-c]isoxazoles, displaying combined 5-HT uptake inhibiting and alpha2-adrenoceptor antagonistic activities. Part 2: Further exploration on the cinnamyl moiety” (Bioorg Med Chem Lett, 2004):

What was measured:
[1] = biological target: T1, Alpha-2A adrenergic receptor (Homo sapiens, UniProt P08913); assay: In vitro binding affinity to the human alpha-2A adrenergic receptor
T1 sequence (P08913 whole entry): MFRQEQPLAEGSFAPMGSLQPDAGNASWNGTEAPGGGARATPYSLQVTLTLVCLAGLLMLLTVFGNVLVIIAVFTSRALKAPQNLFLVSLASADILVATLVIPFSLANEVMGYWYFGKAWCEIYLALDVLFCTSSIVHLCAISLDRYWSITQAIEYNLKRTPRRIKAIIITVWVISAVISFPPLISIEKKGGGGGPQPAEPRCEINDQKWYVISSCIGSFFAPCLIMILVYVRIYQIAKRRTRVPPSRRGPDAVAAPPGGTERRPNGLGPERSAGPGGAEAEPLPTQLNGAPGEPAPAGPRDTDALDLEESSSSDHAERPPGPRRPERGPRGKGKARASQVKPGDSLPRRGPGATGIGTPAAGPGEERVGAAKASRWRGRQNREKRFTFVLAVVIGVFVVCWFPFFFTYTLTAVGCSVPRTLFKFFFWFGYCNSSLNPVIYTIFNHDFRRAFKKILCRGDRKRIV

[2] = biological target: T2, Alpha-2C adrenergic receptor (Homo sapiens, UniProt P18825); assay: In vitro binding affinity to human alpha-2C adrenergic receptor
T2 sequence (P18825 whole entry): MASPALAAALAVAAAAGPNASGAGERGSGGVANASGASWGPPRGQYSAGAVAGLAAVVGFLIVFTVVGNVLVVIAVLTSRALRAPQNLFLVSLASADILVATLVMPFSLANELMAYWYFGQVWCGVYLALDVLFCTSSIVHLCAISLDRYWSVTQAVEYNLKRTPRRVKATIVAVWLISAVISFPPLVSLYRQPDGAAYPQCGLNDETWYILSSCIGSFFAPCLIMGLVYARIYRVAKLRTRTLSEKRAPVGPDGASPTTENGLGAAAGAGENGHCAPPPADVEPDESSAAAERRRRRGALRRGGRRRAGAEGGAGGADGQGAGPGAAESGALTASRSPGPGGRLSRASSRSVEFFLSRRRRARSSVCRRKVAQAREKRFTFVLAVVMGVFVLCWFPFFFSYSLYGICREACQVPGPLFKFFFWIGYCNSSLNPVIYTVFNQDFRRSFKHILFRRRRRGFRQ

[3] = biological target: Adrenergic receptor alpha-2 (Rattus norvegicus) (UniProt P22086+P19328+P22909); assay: Inhibition ofmedetomidine-induced loss of righting, which evaluates the ability to block central alpha-2-adrenoceptor; format: functional
[4] = biological target: Sodium-dependent serotonin transporter (Homo sapiens, UniProt P31645); assay: In vitro binding affinity towards human serotonin transporter
Sequence of Sodium-dependent serotonin transporter (P31645 whole entry): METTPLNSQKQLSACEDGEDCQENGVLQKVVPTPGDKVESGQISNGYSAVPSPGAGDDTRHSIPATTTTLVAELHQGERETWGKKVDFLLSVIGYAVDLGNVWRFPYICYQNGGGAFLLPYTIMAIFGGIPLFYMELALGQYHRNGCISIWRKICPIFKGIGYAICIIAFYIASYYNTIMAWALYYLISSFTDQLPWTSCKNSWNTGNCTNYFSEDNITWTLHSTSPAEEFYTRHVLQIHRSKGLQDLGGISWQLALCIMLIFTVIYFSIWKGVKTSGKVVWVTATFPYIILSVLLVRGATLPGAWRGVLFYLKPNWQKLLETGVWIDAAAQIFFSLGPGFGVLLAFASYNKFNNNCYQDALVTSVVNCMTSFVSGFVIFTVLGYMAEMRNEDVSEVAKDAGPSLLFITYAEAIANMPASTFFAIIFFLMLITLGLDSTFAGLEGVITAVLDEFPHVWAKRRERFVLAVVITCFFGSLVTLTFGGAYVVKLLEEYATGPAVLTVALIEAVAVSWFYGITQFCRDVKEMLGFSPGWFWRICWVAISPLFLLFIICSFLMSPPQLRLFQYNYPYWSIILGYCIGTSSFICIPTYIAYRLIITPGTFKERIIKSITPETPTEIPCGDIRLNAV

Row | SMILES | Ki [1] [nM] | Ki [2] [nM] | ED50 [3] [mg/kg] | Ki [4] [nM]
1 | COc1cc2c(cc1OC)C1=NO[C@@H](CN3CCN(C/C=C(\C)c4ccc(F)cc4F)CC3)[C@@H]1CO2 | 9.3 | 0.8 | > 2.5 | 5.4
2 | COc1cc2c(cc1OC)C1=NO[C@@H](CN3CCN(C/C(C)=C/c4cccc(F)c4F)CC3)[C@@H]1CO2 | 3 | 0.7 | 10 | –
3 | COc1cc2c(cc1OC)C1=NO[C@@H](CN3CCN(C/C=C(\C)c4ccco4)CC3)[C@@H]1CO2 | 0.5 | 0.4 | 0.16 | 22
4 | COc1cc2c(cc1OC)C1=NO[C@@H](CN3CCN(C/C(C)=C/c4cccc(F)c4)CC3)[C@@H]1CO2 | 1.1 | 0.2 | 0.63 | –
5 | COc1cc2c(cc1OC)C1=NO[C@@H](CN3CCN(C/C=C(\C)c4ccccc4OC)CC3)[C@@H]1CO2 | 5.2 | 0.9 | > 2.5 | 51
6 | COc1cc2c(cc1OC)C1=NO[C@@H](CN3CCN(C/C=C/c4ccc(F)cc4)CC3)[C@@H]1CO2 | 9 | 23 | 4.7 | 5.6
7 | COc1cc2c(cc1OC)C1=NO[C@@H](CN3CCN(C/C=C(\C)c4ccc(O)cc4)CC3)[C@@H]1CO2 | 1.9 | 0.6 | > 2.5 | 7.6
8 | COc1cc2c(cc1OC)C1=NO[C@@H](CN3CCN(C/C=C\c4ccccc4)CC3)[C@@H]1CO2 | – | – | > 10 | 35
9 | COc1cc2c(cc1OC)C1=NO[C@@H](CN3CCN(C/C=C/c4ccccc4F)CC3)[C@@H]1CO2 | 2.9 | 2.8 | 2.5 | 13
10 | COc1cc2c(cc1OC)C1=NO[C@@H](CN3CCN(C/C=C(\C)c4cccs4)CC3)[C@@H]1CO2 | 0.3 | 0.2 | 0.63 | 74
11 | COc1cc2c(cc1OC)C1=NO[C@@H](CN3CCN(C/C=C/c4ccccc4)CC3)[C@@H]1CO2 | – | – | – | 8.3
12 | COc1cc2c(cc1OC)C1=NO[C@@H](CN3CCN(C/C=C/c4ccc(Cl)cc4)CC3)[C@@H]1CO2 | 69 | 10 | 10 | 1.3
13 | COc1cc2c(cc1OC)C1=NO[C@@H](CN3CCN(C/C(C)=C/c4cccs4)CC3)[C@@H]1CO2 | 1.7 | 0.2 | 0.63 | 2.7
14 | COc1cc2c(cc1OC)C1=NO[C@@H](CN3CCN(C/C(C)=C/c4cccnc4)CC3)[C@@H]1CO2 | 22 | 2.1 | 3.1 | 63
15 | COc1cc2c(cc1OC)C1=NO[C@@H](CN3CCN(C/C=C(\C)c4ccccc4)CC3)[C@@H]1CO2 | – | – | 0.3 | 4.5
16 | COc1ccccc1/C=C(\C)CN1CCN(C[C@@H]2ON=C3c4cc(OC)c(OC)cc4OC[C@H]32)CC1 | 1 | 0.4 | 2 | –
17 | COc1cc2c(cc1OC)C1=NO[C@@H](CN3CCN(C/C(C)=C/c4ccc(F)cc4)CC3)[C@@H]1CO2 | 3.4 | 0.7 | 10 | –
18 | COc1cc2c(cc1OC)C1=NO[C@@H](CN3CCN(C/C(C)=C/c4cc(F)ccc4F)CC3)[C@@H]1CO2 | 0.3 | 0.2 | 2.5 | –
19 | COc1cc2c(cc1OC)C1=NO[C@@H](CN3CCN(C/C=C/c4cccc(F)c4)CC3)[C@@H]1CO2 | 5.9 | 0.7 | 5 | 2.5
20 | COc1cc2c(cc1OC)C1=NO[C@@H](CN3CCN(C/C(C)=C/c4ccco4)CC3)[C@@H]1CO2 | 1.7 | 0.5 | 5 | 21
21 | COc1cc2c(cc1OC)C1=NO[C@@H](CN3CCN(C/C(C)=C/c4ccccc4)CC3)[C@@H]1CO2 | – | 0.2 | 1.3 | –
22 | COc1cc2c(cc1OC)C1=NO[C@@H](CN3CCN(C/C=C(\C)c4ccsc4)CC3)[C@@H]1CO2 | 1.4 | 0.3 | 1.25 | 4.8
23 | COc1cc2c(cc1OC)C1=NO[C@@H](CN3CCN(C/C(C)=C/c4ccsc4)CC3)[C@@H]1CO2 | 1.1 | 0.2 | 1.25 | 1.9
24 | COc1cc2c(cc1OC)C1=NO[C@@H](CN3CCN(C/C=C(\C)c4ccc(F)cc4)CC3)[C@@H]1CO2 | 2.9 | 0.3 | 1.25 | 1.3
